Test results published in US5741687A (Toyo Boseki Kaubshiki Kaisha, priority 1992, dated 1998).

system: sorbitol oxidase; test: Sorbitol oxidase activity determined by H2O2 produced, with various monosaccharides and derivatives as substrate; format: biochemical, Xanthomonas maltophilia TE3539; parameters: concentration or dose not given beside the values; settings: substrate specificity; enzyme activity with respect to D-sorbitol set at 100
Method: First, the following reaction mixture is prepared.
The enzyme activity was determined in the case where various monosaccharides and derivatives thereof were used as a substrate. The value of enzyme activity with respect to D-sorbitol was set at 100.

Row | Relative activity (%) | Structure (SMILES)
1 | 0.54 | O=C[C@H](O)[C@@H](O)[C@H](O)[C@H](O)CO [D-glucose]
2 | 2.88 | O=C(CO)[C@@H](O)[C@H](O)[C@H](O)CO [D-fructose]
3 | 0.40 | O[C@H]1[C@H](O)[C@@H](O)[C@H](O)[C@@H](O)[C@H]1O [Inositol]
4 | 0.00 | OC[C@H]1O[C@H](O[C@H]2[C@H](O)[C@@H](O)C(O)O[C@@H]2CO)[C@H](O)[C@@H](O)[C@@H]1O (mixture of isomers) [Maltose]
5 | 100.00 | OC[C@@H](O)[C@@H](O)[C@H](O)[C@@H](O)CO [D-sorbitol]
6 | 3.50 | OCC(O)CO [Glycerol]
7 | 86.60 | OC[C@@H](O)[C@@H](O)[C@H](O)[C@H](O)CO [D-mannitol]
8 | 0.42 | O=C[C@H](O)[C@@H](O)[C@@H](O)[C@H](O)CO [D-galactose]
9 | 23.20 | OC[C@@H](O)C(O)[C@H](O)CO [D-arabitol]
10 | 0.00 | Cl.N[C@H]1C(O)O[C@H](CO)[C@@H](O)[C@@H]1O (stereo partly drawn) [D-glucosamine hydrochloride]
11 | 10.60 | O=C(CO)[C@@H](O)[C@H](O)[C@@H](O)CO [L-sorbose]
12 | 89.90 | OC[C@@H](O)[C@H](O)[C@@H](O)CO [D-xylitol]
13 | 1.01 | O=C[C@@H](O)[C@@H](O)[C@H](O)[C@H](O)CO [D-mannose]

system: sorbitol oxidase; test: as above; format: biochemical, Xanthomonas maltophilia TE3539; settings: with respect to sorbitol

Row | Km [µM] | Structure (SMILES)
14 | 600 | OC[C@@H](O)[C@@H](O)[C@H](O)[C@@H](O)CO [D-sorbitol]
